Laboratory results: patent US6727253B2, “Treatment of accidental extravasation of anthracyclines” (Antianthra APS, priority 1999, dated 2004)
Read-outs that look alike come from different tables or passages of the source.

Legend:
[1] = system: extravasation of doxorubicin in a patient; assay: Clinical results in a patient with doxorubicin extravasation; format: in vivo
[2] = system: SC daunorubicin induced wounds in mice; conditions: for AUC / DW / FW / TTW: Table A
Protocol: The mice were euthanized after healing of all wounds.
The effect of various doses of ICRF-187 was investigated in Example 3.
Comparison of two concentrations of sc daunorubicin were compared with and without simultaneous treatment with ICRF-187 250 mg/kg.
ICRF-187 was administered at the same time as daunorubicin, 3 hours after, and 6 hours after, respectively. Saline served as control. The dose of daunorubicin was 3 mg/kg so and ICRF-187 was administered IP in a 250 mg/kg solution. Twenty-eight mice were used. The results are depicted in data sheet #6 and the mean AUCs are shown graphically in FIG. 5.
100 mg/kg ICRF-187 was injected into the subcutaneous papule produced by injected daunorubicin. This treatment was compared to intralesional saline control, IP saline control, and IP treatment with ICRF-187.
[…]. Seven experiments (n=6, 7, 7, 9, 9, 9, and 9) with 3 mg/kg daunorubicin SC plus saline IP at t=0 and seven experiments (n=6, 7, 7, 9, 9, 8, and 9) with 3 mg/kg daunorubicin SC plus 250 mg/kg ICRF-187 IP at t=0tin two experiments (n=9 and 4) the ICRF-187 doses were 62,5 mg/kg and 375 mg/kg IP, respectively, in two (n=7 and 9) the dose was 125 mg/kg. ICRF-187 250 mg/kg was administered IV in one (n=9).

[3] = Example 3, daunorubicin 3 mg/kg sc + ICRF-187 250 mg/kg IP
[4] = Example 3, daunorubicin 3 mg/kg sc + ICRF-187 375 mg/kg IP
[5] = Example 4, daunorubicin 1 mg/kg sc + ICRF-187 250 mg/kg IP simultaneous
[6] = Example 4, daunorubicin 3 mg/kg sc + ICRF-187 250 mg/kg IP simultaneous
[7] = Example 5, daunorubicin 1 mg/kg sc + ICRF-187 250 mg/kg IP
[8] = Example 5, daunorubicin 3 mg/kg sc + ICRF-187 250 mg/kg IP
[9] = Example 6, daunorubicin 3 mg/kg sc + ICRF-187 250 mg/kg IP 3 hours after daunorubicin
[10] = Example 6, daunorubicin 3 mg/kg sc + ICRF-187 250 mg/kg IP 6 hours after daunorubicin
[11] = Example 6, daunorubicin 3 mg/kg sc + ICRF-187 250 mg/kg IP at the same time
[12] = Example 7, daunorubicin 3 mg/kg sc + 0.05 ml ICRF-187 100 mg/kg IL
[13] = Example 7, daunorubicin 3 mg/kg sc + ICRF-187 250 mg/kg IP
[14] = daunorubicin 1 mg/kg SC + DEX 250 mg/kg IP at t=0, pooled data
[15] = daunorubicin 3 mg/kg SC + DEX 125 mg/kg IP at t=0, +3h and +6h
[16] = daunorubicin 3 mg/kg SC + DEX 125 mg/kg IP at t=0, pooled data
[17] = daunorubicin 3 mg/kg SC + DEX 250 mg/kg IP at t=0, pooled data
[18] = daunorubicin 3 mg/kg SC + DEX 250 mg/kg IP at t=0, pooled data, listed as DEX
[19] = daunorubicin 3 mg/kg SC + DEX 250 mg/kg IP at t=+3h
[20] = daunorubicin 3 mg/kg SC + DEX 250 mg/kg IP at t=+6h
[21] = daunorubicin 3 mg/kg SC + DEX 250 mg/kg IP day 0, 1, and 2
[22] = daunorubicin 3 mg/kg SC + DEX 250 mg/kg IV at t=0
[23] = daunorubicin 3 mg/kg SC + DEX 375 mg/kg IP at t=0
[24] = daunorubicin 3 mg/kg SC + DEX 62,5 mg/kg IP at t=0
[25] = daunorubicin 3 mg/kg SC + DEX 62,5 mg/kg IP at t=0, +3h and +6h
[26] = pooled, daunorubicin 3 mg/kg SC, ICRF-187 250 mg/kg IP at t=0, p<0.0001

## C[C@@H](CN1CC(=O)NC(=O)C1)N1CC(=O)NC(=O)C1 [ICRF-187, (+)-1,2-bis(3,5-dioxopiperazinyl-1-yl)propane]
[1]; 149 mg doxorubicin infused subcutaneously, ICRF-187 day 1-3, 30 days evaluation
  ulcer or skin-necrosis: No ulcer or signs of skin-necrosis developed
[1]; ICRF-187 1000, 1000, 500 mg/m^2 on day 1, 2, 3, initiated 2 h 30 m after extravasation
  side effects from the treatment: no side effects
[2]; [3]
  Mean AUC: 395 mm^2 × days
  Mean DWw ± SEM: 29.2 ± 1.1 days
  Mean TTWw ± SEM: 7.8 ± 1.1 days
  Nw/NG: 83%
[2]; [4]
  Mean AUC: 57 mm^2 × days
  Mean DWw ± SEM: 27.0 ± 0.0 days
  Mean TTWw ± SEM: 4.0 ± 0.0 days
  Nw/NG: 25%
[2]; Example 3, daunorubicin 3 mg/kg sc, ICRF-187 250 mg/kg vs saline, p<0.05
  reduction of the AUC: 48%
[2]; Example 3, daunorubicin 3 mg/kg sc, ICRF-187 375 mg/kg vs saline, p<0.05
  reduction of the AUC: 93%
[2]; Example 4, daunorubicin 1 mg/kg sc (low dose), ICRF-187 250 mg/kg IP, p<0.05
  reduction in AUC: 100%
[2]; [5]
  Mean AUC: 0 mm^2 × days
  Nw/NG: 0%
[2]; Example 4, daunorubicin 3 mg/kg sc (high dose), ICRF-187 250 mg/kg IP, p<0.05
  reduction in AUC: 75%
[2]; [6]
  Mean AUC: 313 mm^2 × days
  Mean DWw ± SEM: 14.0 ± 1.5 days
  Mean TTWw ± SEM: 12.0 ± 3.5 days
  Nw/NG: 43%
[2]; [7]
  Mean AUC: 50 mm^2 × days
  Mean DWw ± SEM: 16.0 ± 4.0 days
  Mean TTWw ± SEM: 10.5 ± 3.5 days
  Nw/NG: 22%
[2]; Example 5, daunorubicin 1 mg/kg sc, ICRF-187 250 mg/kg IP, p<0.05
  reduction of AUC: 73%
[2]; [8]
  Mean AUC: 158 mm^2 × days
  Mean DWw ± SEM: 13.7 ± 1.7 days
  Mean TTWw ± SEM: 9.9 ± 1.8 days
  Nw/NG: 78%
[2]; Example 5, daunorubicin 3 mg/kg sc, ICRF-187 250 mg/kg IP, p<0.05
  reduction of AUC: 83%
[2]; [9]
  Mean AUC: 421 mm^2 × days
  Mean DWw ± SEM: 21.0 ± 4.0 days
  Mean TTWw ± SEM: 7.0 ± 0.6 days
  Nw/NG: 43%
[2]; [10]
  Mean AUC: 926 mm^2 × days
  Mean DWw ± SEM: 24.9 ± 0.8 days
  Mean TTWw ± SEM: 6.7 ± 0.6 days
  Nw/NG: 100%
[2]; [11]
  Mean AUC: 326 mm^2 × days
  Mean DWw ± SEM: 19.6 ± 0.7 days
  Mean TTWw ± SEM: 7.7 ± 0.5 days
  Nw/NG: 100%
[2]; Example 6, daunorubicin 3 mg/kg sc, ICRF-187 250 mg/kg IP 6 hours delay, statistically non-significant
  AUC reduced: 34%
[2]; Example 6, daunorubicin 3 mg/kg sc, ICRF-187 250 mg/kg IP at t=0, p<0.05
  AUC reduced: 77%
[2]; Example 6, daunorubicin 3 mg/kg sc, ICRF-187 250 mg/kg IP at t=+3 hours, p<0.05
  AUC reduced: 70%
[2]; [12]
  Mean AUC: 403 mm^2 × days
  Mean DWw ± SEM: 19.4 ± 2.3 days
  Mean TTWw ± SEM: 6.9 ± 1.6 days
  Nw/NG: 78%
[2]; [13]
  Mean AUC: 562 mm^2 × days
  Mean DWw ± SEM: 19.0 ± 0.9 days
  Mean TTWw ± SEM: 9.6 ± 0.7 days
  Nw/NG: 89%
[2]; Example 7, daunorubicin 3 mg/kg sc, ICRF-187 250 mg/kg IP, p<0.05
  reduction of the AUC: 51%
[2]; [14]
  AUC: 28 (± 22) mm^2×days
  DW: 16.0 (± 4.0) days
  FW: 13%
  TTW: 10.5 (± 3.5) days
[2]; [15]
  AUC: 112 (± 37) mm^2×days
  DW: 18.0 (± 0.0) days
  FW: 22%
  TTW: 16.5 (± 0.5) days
[2]; [16]
  AUC: 692 (± 115) mm^2×days
  DW: 20.6 (± 0.8) days
  FW: 88%
  TTW: 8.4 (± 0.6) days
[2]; [17]
  AUC: 373 (± 48) mm^2×days
  DW: 17.4 days
  FW: 78%
  TTW: 9.7 days
[2]; [18]
  DW: 17.4 (± 0.6) days
  TTW: 9.7 (± 0.5) days
[2]; [19]
  AUC: 420 (± 206) mm^2×days
  DW: 21.0 (± 4.0) days
  FW: 43%
  TTW: 7.0 (± 0.6) days
[2]; [20]
  AUC: 927 (± 163) mm^2×days
  DW: 24.9 (± 0.8) days
  FW: 100%
  TTW: 6.7 (± 0.6) days
[2]; [21]
  AUC: 128 (± 34) mm^2×days
  DW: 13.3 (± 1.2) days
  FW: 75%
  TTW: 17.7 (± 1.0) days
[2]; [22]
  AUC: 479 (± 141) mm^2×days
  DW: 19.3 (± 1.3) days
  FW: 67%
  TTW: 9.2 (± 1.2) days
[2]; [23]
  AUC: 57 (± 57) mm^2×days
  DW: 23.0 (± 0.0) days
  FW: 25%
  TTW: 4.0 (± 0.0) days
[2]; [24]
  AUC: 662 (± 223) mm^2×days
  DW: 19.4 (± 1.3) days
  FW: 89%
  TTW: 8.1 (± 0.5) days
[2]; [25]
  AUC: 0 mm^2×days
  FW: 0%
[2]; daunorubicin induced lesions, ICRF-187 250 mg/kg IP three days in a row
  prevention of lesions: completely prevented
[2]; daunorubicin induced wounds, ICRF-187 250 mg/kg
  protection by IP injection compared to IV administration: no statistically significant difference
[2]; daunorubicin, ICRF-187 62,5 or 125 mg/kg IP at 0, 3 and 6 hours
  degree of protection, triple-treatment: at least the same degree of protection as a single injection of 250 mg/kg ICRF-187 IP
[2]; daunorubicin, ICRF-187 administered 3 hours after
  protection with delayed administration: no different from the protection obtained by immediate ICRF-187 administration
[2]; daunorubicin, ICRF-187 delay 6 hours
  protection with delayed administration: protection was lost
[2]; mouse, in vivo
  treatment-related deaths: no treatment-related deaths
[2]; pooled, daunorubicin 3 mg/kg SC, ICRF-187 125 mg/kg IP, p=0.0175 vs 250 mg/kg
  reduction in AUC: 45%
[2]; [26]
  mean duration of wounds reduced by: 35%
  mean time to wounds delayed by: 76%
[2]; pooled, daunorubicin 3 mg/kg SC, single ICRF-187 250 mg/kg IP at t=0, p<0.0001
  mean AUC reduced by: 70%
